In patent publication US7687473B2, “5-amino-4-imidazolecarboxamide riboside and its nucleobase as potentiators of antifolate transport and metabolism” (Health Research, Inc., priority 2005, dated 2010):

Test system: CCRF-CEM cells
Experiment: [3H]MTX uptake (initial velocity and 30 min accumulation) in CCRF-CEM cells
Format: cell-based, human
Conditions: for Potentiation of [3H]MTX uptake at 30 min: compound at 0.5 mM, 10 min pre-incubation with TMTX
Description: Quantitation of folate and antifolate uptake. The method is essentially as follows. Briefly, logarithmically growing (3-5×10^5/ml) CCRF-CEM cells were harvested at room temperature by centrifugation at 1000×g for 5 min. After washing with the appropriate medium, cells were suspended at ≈2×10^7 cells/ml for use in transport studies. […] Anion-free MHS contains 250 mM sucrose and 20 mM HEPES, titrated to pH 7.4 with MgO. […] Uptake was measured as a function of time for 30 min (for rate and extent measurements) or over 5 min (studies requiring initial velocities). […] Uptake was terminated by diluting 100 μL samples into 1 ml of iced 0.9% NaCl. […] The supernatant was aspirated. The cell pellet was washed once with 1 ml iced 0.9% NaCl and centrifuged as above. The washed pellet was solubilized in 1 ml of 0.3% Triton X-100 by incubation for 60 min at 37° C. The solubilized pellet was transferred to a scintillation vial, 10 ml of Liquiscint (National Diagnostics, Atlanta, Ga.) was added and radioactivity was quantitated in a Beckman Model LS6500 liquid scintillation counter. Separate samples at the longest incubation time used in a particular experiment were harvested for HPLC analysis of intracellular contents as above, except that after the second wash the pellets were extracted with 1 ml boiling 0.1 M Na-phosphate, pH 5.5. The extract was clarified by centrifugation and the supernatant was filtered through an MPS-1 filter unit (Amicon) prior to HPLC analysis.

[1] = 1 mM, 30 min incubation, TMTX present, Z absent

In the case of `OC[C@H]1O[C@@H](n2cnc3c(O)ncnc32)C[C@@H]1O` [deoxyinosine], the “Potentiation of [3H]MTX uptake at 30 min” value was “do not potentiate”.
For `Nc1nc2nc[nH]c2c(=O)[nH]1` [guanine], the “Potentiation of [3H]MTX uptake at 30 min” value was “do not potentiate”.
With `CCCC(=O)Nc1ncnc2c1ncn2[C@@H]1O[C@@H]2COP(=O)(O)O[C@H]2[C@H]1OC(=O)CCC` [dibutyryl-cAMP] the “30 min accumulation of [3H]MTX compared to TMTX alone” value [1] was “lower 30 min accumulation” and the “Initial velocity of [3H]MTX uptake compared to TMTX alone” value [1] was “reduced initial velocity”.
In the case of `Nc1ncnc2nc[nH]c12` [adenine], the “Potentiation of [3H]MTX uptake at 30 min” value was “do not potentiate”.
With `Cc1cn([C@H]2C[C@H](O)[C@@H](CO)O2)c(=O)[nH]c1=O` [thymidine] the “Potentiation of [3H]MTX uptake at 30 min” value was “do not potentiate”.
With `NC(=O)NC1NC(=O)NC1=O` (stereo not shown) [ALN, allantoin] the “Potentiation of [3H]MTX uptake” value (500 μM) was “does not potentiate” and the “Inhibition of potentiation by 500 μM Z” value (up to 100 μM) was “does not inhibit potentiation”.
For `Nc1ncnc2c1ncn2[C@H]1C[C@H](O)[C@@H](CO)O1` [deoxyadenosine], the “Potentiation of [3H]MTX uptake at 30 min” value was “do not potentiate”.
`NC(=O)c1[nH]nc([C@@H]2O[C@H](CO)[C@@H](O)[C@H]2O)c1O` [pyrazofurin] was tested, and the “Ability to potentiate [3H]MTX uptake” value was “unable to potentiate”.
With `Nc1nc2c(ncn2[C@H]2C[C@H](O)[C@@H](CO)O2)c(=O)[nH]1` [deoxyguanosine] the “Potentiation of [3H]MTX uptake at 30 min” value was “do not potentiate”.
With `NC(=O)c1nc[nH]c1N` [Z-base, 5-amino-4-imidazolecarboxamide] the “Potentiation of [3H]MTX uptake at 30 min” value was “potentiates”.
For `CSCC[C@H](N)C(=O)O` [methionine], the “Ability to potentiate [3H]MTX uptake” value was “unable to potentiate”.
For `Nc1ncnc2c1ncn2[C@@H]1O[C@H](CO)[C@@H](O)[C@H]1O` [Adenosine, adenosine], the “Ability to potentiate [3H]MTX uptake” value was “unable to potentiate” and the “Potentiation of [3H]MTX uptake at 30 min” value was “do not potentiate”.
With `O=c1[nH]cnc2nc[nH]c12` [hypoxanthine] the “Potentiation of [3H]MTX uptake at 30 min” value was “do not potentiate”.
For `NC(=O)CC[C@H](N)C(=O)O` [glutamine], the “Ability to potentiate [3H]MTX uptake” value was “unable to potentiate”.
In the case of `OC[C@H]1O[C@@H](n2cnc3c(O)ncnc32)[C@H](O)[C@@H]1O` [inosine], the “Ability to potentiate [3H]MTX uptake” value was “unable to potentiate” and the “Potentiation of [3H]MTX uptake at 30 min” value was “do not potentiate”.
`Nc1nc2c(ncn2[C@@H]2O[C@H](CO)[C@@H](O)[C@H]2O)c(=O)[nH]1` [guanosine] was tested, and the “Ability to potentiate [3H]MTX uptake” value was “unable to potentiate” and the “Potentiation of [3H]MTX uptake at 30 min” value was “do not potentiate”.
`O=CO` [formate] was tested, and the “Ability to potentiate [3H]MTX uptake” value was “unable to potentiate”.
